Data on five molecules can be found in patent US12162885B2, “Crystal form of Xevinapant for treating LA SCCHN” (CRYSTAL PHARMACEUTICAL (SUZHOU) CO., LTD., priority 2022, dated 2024).

Data set [1] is described as follows: Stability upon mechanical force (ball milling, tableting; XRPD). It is filed as physicochemical. To be noted: for Crystalline form before and after tableting (XRPD): manual tablet press, 20 kN, 6 mm round tooling; for Crystal form before and after ball milling (XRPD): milled 5 min at 500 rpm in a ball mill. As to the method: Form CSI was milled for 5 min at a vibration speed of 500 rpm in a ball mill. The sample before and after ball milling were checked by XRPD. […] An appropriate amount of Form CSI was compressed into a tablet using a manual tablet press under a pressure of 20 kN with a ϕ6 mm round tooling. Crystalline form before and after tableting were checked by XRPD. […] Form CSII was milled for 5 min at a vibration speed of 500 rpm in a ball mill. The sample before and after ball milling were checked by XRPD. […] An appropriate amount of Form CSII was compressed into a tablet using a manual tablet press under a pressure of 20 kN with a @6 mm round tooling. Crystalline form before and after tableting were checked by XRPD.

Data set [2] in a line: Stability of crystalline form in the formulation process (XRPD). Type of data set: physicochemical. To be noted: formulation of Table 9, process of Table 10. As to the method:
An XRPD of blank prescription (excipients) and the samples before and after the formulation were tested, and result is shown in FIG. 24. […] [table] [table] An XRPD of Blank prescription (excipients) and Form CSII before and after the formulation were tested, and result is shown in FIG. 28.

The next data set can be described thus: Hygroscopicity by DVS. To be noted: from 0% RH to 80% RH. Type of data set: physicochemical. As to the method: Dynamic Vapor Sorption (DVS) was measured via an SMS (Surface Measurement Systems Ltd.) intrinsic DVS instrument. The instrument control software is DVS-Intrinsic control software. Typical Parameters for DVS test are as follows: • Temperature: 25° C. • Gas and flow rate: N2, 200 mL/min • dm/dt: 0.002%/min • RH range: 0% RH-95% RH DVS analyzer was applied to evaluate the hygroscopicity of Form CSI with about 10 mg of sample. […] DVS analyzer was applied to evaluate the hygroscopicity of Form CSII with about 10 mg of sample.

Data set [3] is described as follows: Humidity stability test with DVS analyzer. It is filed as physicochemical. To be noted: DVS 0% RH-95% RH. As to the method:
Dynamic Vapor Sorption (DVS) was measured via an SMS (Surface Measurement Systems Ltd.) intrinsic DVS instrument. The instrument control software is DVS-Intrinsic control software. Typical Parameters for DVS test are as follows: • Temperature: 25° C. • Gas and flow rate: N2, 200 mL/min • dm/dt: 0.002%/min • RH range: 0% RH-95% RH
DVS analyzer was applied to evaluate the humidity stability of prior art solids, Form CSI and Form CSII. The appearance of Form CSI before and after humidity stability test is shown in FIG. 12, and an XRPD pattern of Form CSI before and after test is shown in FIG. 13. The appearance of Form CSII before and after humidity stability test is shown in FIG. 14, and an XRPD pattern of Form CSII before and after test is shown in FIG. 15.

The nature of data set [4]: Storage stability of drug substance with open package (HPLC purity, XRPD form, appearance). Type of data set: physicochemical. As to the method: An appropriate amount of Form CSI was packaged with corresponding condition, and then stored with open package under 25° C./60% RH, 40° C./75% RH and 60° C./75% RH conditions for a period. Appropriate amounts of prior art solids were packaged with corresponding condition, and then stored with open package under 25° C./60% RH and 60° C./75% RH conditions for a period. Chemical purity and crystalline form were checked by HPLC and XRPD, respectively. The appearance comparison of prior art solid A and Solid B before and after storage are shown in FIG. 19 and FIG. 20, respectively.
Open: Put the sample into a glass vial, cover the vial with aluminum foil, and punch 5-10 holes in the foil.
An appropriate amount of Form CSII and prior art solids were packaged with corresponding conditions, and then stored with open package under 25° C./60% RH and 60° C./75% RH for a period. Chemical purity and crystalline form were checked by HPLC and XRPD, respectively. The appearance comparison of prior art solid A and Solid B before and after storage are shown in FIG. 19 and FIG. 20, respectively.

The next data set has as its system LA SCCHN. To be noted: phase 2 clinical trial, combination with CRT compared to CRT alone; cited from earlier work.
Setting [5] is: Initial (baseline of storage stability).

Entries after “also recorded” stand apart in the source; their conditions may differ.

On to `CN[C@@H](C)C(=O)N[C@H]1CN(C(=O)CC(C)C)CC[C@H]2CC[C@@H](C(=O)NC(c3ccccc3)c3ccccc3)N2C1=O` [Form CSII], for which, in data set [1], the “Crystalline form before and after tableting (XRPD)” value is recorded as “kept stable after tableting”; the “Crystal form before and after ball milling (XRPD)” value is “keeps stable after ball milling”. Besides, the “Crystalline form before and after the formulation process (XRPD)” value in data set [2] was “keeps stable before and after the formulation process”. In “Hygroscopicity by DVS”, this molecule had a Weight gain of 1.16%. Besides, in data set [3], the Appearance after test entry is given as “Powder”; the “Crystal change before and after humidity stability test (XRPD)” value is recorded as “no crystal change”. Moreover, in data set [4] (60° C./75% RH open condition), the Physical stability entry is on record as “keeps physically stable for at least four weeks”. Moreover, in data set [4] (60° C./75% RH, Open, 4 weeks), the Appearance result was “Powder” and the Form entry is reported as “No crystal change; also recorded: Form CSII”. In addition, in data set [4] (Initial), the Appearance entry is “Powder” and the Form entry was “Form CSII”.
As for `CN[C@@H](C)C(=O)N[C@H]1CN(C(=O)CC(C)C)CC[C@H]2CC[C@@H](C(=O)NC(c3ccccc3)c3ccccc3)N2C1=O` [Form CSI], in data set [1], the “Crystalline form before and after tableting (XRPD)” value was “keeps stable after tableting”. Further, in data set [1], the “Crystal form before and after ball milling (XRPD)” value is “No crystal change”. For the same molecule, the “Crystalline form before and after the formulation process (XRPD)” value in data set [2] is “keeps stable before and after the formulation process”. Also, the Weight gain in the data set “Hygroscopicity by DVS” is given as 0.46%. The Appearance after test result in data set [3] is “Powder”. Besides, the “Crystal change before and after humidity stability test (XRPD)” value in data set [3] is “no crystal change”. Further, the Time stable entry in data set [4] (25° C./60% RH open condition) is listed as “at least 6 months”; in data set [4] (40° C./75% RH open condition) it was “at least 6 months”; in data set [4] (60° C./75% RH open condition), “at least 3 months”. Besides, the Appearance entry in data set [4] (25° C./60% RH, Open, 6 months) is “Powder”; in data set [4] (40° C./75% RH, Open, 6 months) it was “Powder”; in data set [4] (60° C./75% RH, Open, 3 months) it was “Powder”; in data set [4] (Initial) it was “Powder”. Further, the Form result in data set [4] (25° C./60% RH, Open, 6 months) is on record as “Form CSI”; in data set [4] (40° C./75% RH, Open, 6 months) it was “Form CSI”; in data set [4] (60° C./75% RH, Open, 3 months), “Form CSI”; in data set [4] (Initial), “Form CSI”. For the same molecule, the Purity was 99.45% in data set [4] (25° C./60% RH, Open, 6 months); 99.45% in data set [4] (40° C./75% RH, Open, 6 months); 99.50% in data set [4] (setting [5]).
As to `CN[C@@H](C)C(=O)N[C@H]1CN(C(=O)CC(C)C)CC[C@H]2CC[C@@H](C(=O)NC(c3ccccc3)c3ccccc3)N2C1=O.Cl` [Prior art Solid A, reference compound], the Appearance after test result in data set [3] is recorded as “Transparent solid”. Moreover, the Appearance result in data set [4] (25° C./60% RH, Open, 1 month) is reported as “Powder”; in data set [4] (60° C./75% RH, Open, 1 week) it was “Gel”; in data set [4] (Initial), “Powder”. Moreover, the Form entry is listed as “Amorphous” in data set [4] (25° C./60% RH, Open, 1 month); “Gel” in data set [4] (60° C./75% RH, Open, 1 week); “Amorphous” in data set [4] (Initial). Moreover, the Purity in data set [4] (25° C./60% RH, Open, 1 month) is 98.65%; in data set [4] (setting [5]), 98.77%.
Turning to `CN[C@@H](C)C(=O)N[C@H]1CN(C(=O)CC(C)C)CC[C@H]2CC[C@@H](C(=O)NC(c3ccccc3)c3ccccc3)N2C1=O.O=C(O)C(F)(F)F` [Prior art Solid B, reference compound], the Appearance after test result in data set [3] is recorded as “Transparent solid”. Also, the Appearance result is “Powder” in data set [4] (25° C./60% RH, Open, 1 month); “Gel” in data set [4] (60° C./75% RH, Open, 1 week); “Powder” in data set [4] (Initial). Also, the Form entry in data set [4] (25° C./60% RH, Open, 1 month) was “Amorphous”; in data set [4] (60° C./75% RH, Open, 1 week), “Gel”; in data set [4] (Initial), “Amorphous”. The Purity was found to be 98.73% in data set [4] (25° C./60% RH, Open, 1 month) and 98.87% in data set [4] (setting [5]).
For `CN[C@@H](C)C(=O)N[C@H]1CN(C(=O)CC(C)C)CC[C@H]2CC[C@@H](C(=O)NC(c3ccccc3)c3ccccc3)N2C1=O` [Xevinapant, (5S,8S,10aR)—N-benzhydryl-5-((S)-2-(methylamino)propanamido)-3-(3-methylbutanoyl)-6-oxodecahydropyrrolo[l,2-a][l,5]diazocine-8-carboxamide], the “Efficacy in treating patients with LA SCCHN” value in the data set with LA SCCHN is on record as “demonstrated efficacy”.
